Experimental data taken from patent US10568933B2, “Beta-casein A2 and blood glucose levels” (THE A2 MILK COMPANY LIMITED, priority 2013, dated 2020).

Test system: SH-SY5Y cells
Assay: Effect of BCM-7 on DNA methylation levels (MBD-seq)
Type: cell-based, human
Conditions: 1 μM, 4 hours
Procedure: Shifts in global DNA methylation patterns induced by BCM-7 were investigated using methyl-CpG binding domain (MBD) protein-enriched genome sequencing (MBD-seq) as described previously (Trivedi M., et al., Mol. Pharm. 2014), whereas mRNA translation microarray data was obtained using an Agilent V3 microarray chip, from non-treated control SH-SY5Y cells and cells treated for 4 hours with 1 μM BCM-7.
Genomic DNA was extracted from samples using the Easy DNA kit (Invitrogen K1800-01) using the appropriate protocol for cell lines. Fragmentation was performed on a Covaris S2 ultrasonicator using the following settings: duty cycle 10%, intensity 5, 200 cycles per burst during 200 sec. Fragments were obtained having an average length of 200 bp. The power mode is frequency sweeping, temperature 6-8° C., water level 12. […] DNA with an input from […] was analysed on the Agilent 2100 using a DNA 1000 chip. […] The concentrations of fragmented and captured DNA were determined on a Fluostar Optima plate reader with the Quant-iT PicoGreen dsDNA Assay Kit (Invitrogen P7589) at 480/520 nm. […]
The Illumina library amplification index protocol was used with the following alterations: 22 μl DNA was used and performed 21 cycles run. […] 1 μl was applied to an Agilent 2100 HS DNA chip and the concentration was determined by smear analysis on the Agilent 2100. […]

Substance: beta-casomorphin-7 [BCM-7]
- Epigenetic status (DNA methylation) of genes responsible for glucose metabolism, synthesis and glucose homeostasis: altered
